Columns and labels:
Assay type in all cases: in vivo
corn (Zea mays) = assay: Test C postemergence, visual plant response rating; details: Test C, postemergence, 1000 g ai/ha
Excerpt: (§1) Seeds of plant species selected from barnyardgrass (Echinochloa crus-galli), kochia (Bassia scoparia), ragweed (common ragweed, Ambrosia artemisiifolia), Italian ryegrass (Lolium mutiflorum), foxtail, giant (giant foxtail, Setaria faberi), foxtail, green (green foxtail, Setaria viridis), and pigweed (Amaranthus retroflexus) were planted into a blend of loam soil and sand and treated preemergence with a directed soil spray using test chemicals formulated in anon-phytotoxic solvent mixture which included a surfactant.
(§2) At the same time, plants selected from these weed species and also wheat (Triticum aestivum), corn (Zea mays), blackgrass (Alopecurus myosuroides), and galium (catchweed bedstraw, Galium aparine) were planted in pots containing the same blend of loam soil and sand and treated with post emergence applications of test chemicals formulated in the same manner. Plants ranged in height from 2 to 10 cm and were in the one- to two-leaf stage for the postemergence treatment. Treated plants and untreated controls were maintained in a greenhouse for approximately 10 d, after which time all treated plants were compared to untreated controls and visually evaluated for injury. Plant response ratings, summarized in Table C, are based on a 0 to 100 scale where 0 is no effect and 100 is complete control. A dash (-)response means no test result.

[1] = test system: ragweed (common ragweed, Ambrosia artemisiifolia); assay: Test C postemergence, visual plant response rating; details: Test C, postemergence, 1000 g ai/ha
Excerpt: as §1, §2

[2] = test system: barnyardgrass (Echinochloa crus-galli); assay: Test C postemergence, visual plant response rating; details: Test C, postemergence, 1000 g ai/ha
Excerpt: as §1, §2

[3] = test system: foxtail, giant (giant foxtail, Setaria faberi); assay: Test C postemergence, visual plant response rating; details: Test C, postemergence, 1000 g ai/ha
Excerpt: as §1, §2

kochia (Bassia scoparia) [4] = assay: Test C postemergence, visual plant response rating; details: Test C, postemergence, 1000 g ai/ha
Excerpt: as §1, §2

[5] = test system: galium (catchweed bedstraw, Galium aparine); assay: Test C postemergence, visual plant response rating; details: Test C, postemergence, 1000 g ai/ha
Excerpt: as §1, §2

[6] = test system: wheat (Triticum aestivum); assay: Test C postemergence, visual plant response rating; details: Test C, postemergence, 1000 g ai/ha
Excerpt: as §1, §2

[7] = test system: Italian ryegrass (Lolium mutiflorum); assay: Test C postemergence, visual plant response rating; details: Test C, postemergence, 1000 g ai/ha
Excerpt: as §1, §2

[8] = test system: blackgrass (Alopecurus myosuroides); assay: Test C postemergence, visual plant response rating; details: Test C, postemergence, 1000 g ai/ha
Excerpt: as §1, §2

[9] = test system: pigweed (Amaranthus retroflexus); assay: Test C postemergence, visual plant response rating; details: Test C, postemergence, 1000 g ai/ha
Excerpt: as §1, §2

[10] = test system: ragweed (common ragweed, Ambrosia artemisiifolia); assay: Test C preemergence, visual plant response rating; details: 1000 g ai/ha
Excerpt: as §1, §2

[11] = test system: barnyardgrass (Echinochloa crus-galli); assay: Test C preemergence, visual plant response rating; details: 1000 g ai/ha
Excerpt: as §1, §2

[12] = test system: foxtail, giant (giant foxtail, Setaria faberi); assay: Test C preemergence, visual plant response rating; details: 1000 g ai/ha
Excerpt: as §1, §2

kochia (Bassia scoparia) [13] = assay: Test C preemergence, visual plant response rating; details: 1000 g ai/ha
Excerpt: as §1, §2

[14] = test system: Italian ryegrass (Lolium mutiflorum); assay: Test C preemergence, visual plant response rating; details: 1000 g ai/ha
Excerpt: as §1, §2

[15] = test system: pigweed (Amaranthus retroflexus); assay: Test C preemergence, visual plant response rating; details: 1000 g ai/ha
Excerpt: as §1, §2

Compound	Corn plant response rating (0 to 100 scale) (corn (Zea mays))	Ragweed plant response rating (0 to 100 scale) [1]	Barnyardgrass plant response rating (0 to 100 scale) [2]	Foxtail, Giant plant response rating (0 to 100 scale) [3]	Kochia plant response rating (0 to 100 scale) (kochia (Bassia scoparia) [4])	Galium plant response rating (0 to 100 scale) [5]	Wheat plant response rating (0 to 100 scale) [6]	Ryegrass, Italian plant response rating (0 to 100 scale) [7]	Blackgrass plant response rating (0 to 100 scale) [8]	Pigweed plant response rating (0 to 100 scale) [9]	Ragweed plant response rating (0 to 100 scale) [10]	Barnyardgrass plant response rating (0 to 100 scale) [11]	Foxtail, Giant plant response rating (0 to 100 scale) [12]	Kochia plant response rating (0 to 100 scale) (kochia (Bassia scoparia) [13])	Ryegrass, Italian plant response rating (0 to 100 scale) [14]	Pigweed plant response rating (0 to 100 scale) [15]
CCO/N=C(/c1c(O)cnn(C)c1=O)c1cccc2ccccc12 [Compound 225]	0	70	10	20	10	90	0	0	20	60	40	0	60	10	0	80
CO/N=C(/c1c(O)cnn(C)c1=O)c1cccc2ccccc12 [Compound 237]	0	30	0	0	80	100	0	10	10	90	20	0	60	30	0	90
CO/N=C(\c1c(O)cnn(C)c1=O)c1cccc2ccccc12 [Compound 238]	0	30	20	40	80	90	0	0	20	90	90	0	40	30	20	100

— patent US20210045385A1, “PYRIDAZINONE-SUBSTITUTED KETOXIMES AS HERBICIDES” (FMC Corporation, priority 2018, published 2021)
